Literature values as cited in patent US20130337047A1, “COMPOSITIONS FOR TREATING ORAL AND PERIODONTAL INFECTIONS” (ZarzaTech, Inc., priority 2012, published 2013).
Where a name gives a salt, the structure may show the parent alone.

What was measured:
[1] = system: gingivitis
[2] = system: crevicular neutrophils; conditions: humans, topical 0.5% oral rinse

Compound	Anti-gingivitis activity ([1]; dose response study, dog gingivitis model)	Prevention of gingivitis ([1]; prevention study, same dog model)	Antibacterial function of crevicular neutrophils [2]	Clinical gingivitis benefit [2]	Antiplaque activity and tooth stain ([1]; dog gingivitis model)	Gingival inflammation and gingival bleeding ([1]; dog gingivitis model)	Gingivitis ([1]; dog gingivitis model)
CN/C(=N/CCSCc1nc[nH]c1C)NC#N [cimetidine HCL]	significant anti-gingivitis activity that increased with increasing dose	not conclusive					
CN/C(=N/CCSCc1nc[nH]c1C)NC#N [cimetidine]			enhanced	no clinical gingivitis benefit	no antiplaque activity or increase in tooth stain	significantly reduced	reduced gingivitis
